Legend:
Format in all cases: in vivo
[1] = test system: wheat (Triticum aestivum); experiment: Test A postemergence; settings: Triticum aestivum, post-emergence, 240 h
How it was run: (§1)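 Compounds were formulated in a non-phytotoxic solvent mixture with surfactant and applied as a preemergence directed soil spray after seeding, or sprayed postemergence over plants 2 to 10 cm tall at the one- to two-leaf stage. Evaluation after about 10 d compared treated with untreated controls, using a scale from 0 (no effect) to 100 (complete control).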

corn (Zea mays) = experiment: Test A postemergence; settings: Zea mays, post-emergence, 240 h
How it was run: as §1

[2] = test system: blackgrass (Alopecurus myosuroides); experiment: Test A postemergence; settings: Alopecurus myosuroides, post-emergence, 240 h
How it was run: as §1

[3] = test system: barnyardgrass (Echinochloa crus-galli); experiment: Test A postemergence; settings: Echinochloa crus-galli, post-emergence, 240 h
How it was run: as §1

[4] = test system: pigweed (Amaranthus retroflexus); experiment: Test A postemergence; settings: Amaranthus retroflexus, post-emergence, 240 h
How it was run: as §1

Kochia (Kochia scoparia) [5] = experiment: Test A postemergence; settings: Bassia scoparia, post-emergence, 240 h
How it was run: as §1

[6] = test system: Galium (catchweed bedstraw, Galium aparine); experiment: Test A postemergence; settings: Galium, post-emergence, 240 h
How it was run: as §1

[7] = test system: ryegrass, Italian (Italian ryegrass, Lolium multiflorum); experiment: Test A postemergence; settings: Lolium multiflorum, post-emergence, 240 h
How it was run: as §1

[8] = test system: giant foxtail (Setaria faberii); experiment: Test A postemergence; settings: Setaria faberi, post-emergence, 240 h
How it was run: as §1

[9] = test system: ragweed (common ragweed, Ambrosia elatior); experiment: Test A postemergence; settings: Ambrosia artemisiifolia, post-emergence, 240 h
How it was run: as §1

[10] = test system: barnyardgrass (Echinochloa crus-galli); experiment: Test A preemergence; settings: Echinochloa crus-galli, pre-emergence, 240 h, Preemergence
How it was run: as §1

[11] = test system: pigweed (Amaranthus retroflexus); experiment: Test A preemergence; settings: Amaranthus retroflexus, pre-emergence, 240 h, 0 to 100 scale where 0 is no effect and 100 is complete control, read-out: Pigweed plant response rating
Kochia (Kochia scoparia) [12] = experiment: Test A preemergence; settings: Bassia scoparia, pre-emergence, 240 h, 0 to 100 scale where 0 is no effect and 100 is complete control, read-out: Kochia plant response rating
How it was run: as §1

[13] = test system: ryegrass, Italian (Italian ryegrass, Lolium multiflorum); experiment: Test A preemergence; settings: Lolium multiflorum, pre-emergence, 240 h, 0 to 100 scale where 0 is no effect and 100 is complete control, read-out: Ryegrass, Italian plant response rating
How it was run: as §1

[14] = test system: giant foxtail (Setaria faberii); experiment: Test A preemergence; settings: Setaria faberi, pre-emergence, 240 h, Preemergence
How it was run: as §1

[15] = test system: ragweed (common ragweed, Ambrosia elatior); experiment: Test A preemergence; settings: Ambrosia artemisiifolia, pre-emergence, 240 h, 0 to 100 scale where 0 is no effect and 100 is complete control, read-out: Ragweed plant response rating
How it was run: as §1

rice (Oryra sativa) = experiment: Test B flooded paddy test; settings: Oryza sativa, 250 g ai/ha, Flood; 0 to 100 scale where 0 is no effect and 100 is complete control; read-out: Rice plant response rating
How it was run: (§2)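 Evaluation by eye, against controls, occurred 13–15 d post-treatment in a greenhouse, using a 0 (no effect) to 100 (complete control) scale. Application was into the paddy water, 3 cm deep over the soil, on 2-leaf plants.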

[16] = test system: ducksalad (Heteranthera limosa); experiment: Test B flooded paddy test; settings: Heteranthera limosa, 250 g ai/ha, Flood; 0 to 100 scale where 0 is no effect and 100 is complete control; read-out: Ducksalad plant response rating
How it was run: as §2

[17] = test system: barnyardgrass (Echinochloa crus-galli); experiment: Test B flooded paddy test; settings: Echinochloa crus-galli, 250 g ai/ha, Flood; 0 to 100 scale where 0 is no effect and 100 is complete control; read-out: Barnyardgrass plant response rating
How it was run: as §2

[18] = test system: sedge, umbrella (small-flower umbrella sedge, Cyperus difformis); experiment: Test B flooded paddy test; settings: Cyperus difformis, 250 g ai/ha, Flood; 0 to 100 scale where 0 is no effect and 100 is complete control; read-out: Sedge, Umbrella plant response rating
How it was run: as §2

[19] = 125 g ai/ha, preemergence, approx. 10 d

CN1C[C@H](c2ccc(C(F)(F)F)cc2)[C@@H](C(=O)Nc2cnccc2C(F)(F)F)C1=O [Compound 1065] was tested, and the plant injury at 125 g/ha ([1]; 125 g ai/ha, postemergence, visual injury on 0 to 100 scale (0 no effect, 100 complete control), approx. 10 d, read-out: Wheat plant response rating) was 20%, the plant injury at 31 g/ha ([1]; Postemergence, 31 g ai/ha, visual injury after approx. 10 d, 0 to 100 scale, 0 no effect, 100 complete control, read-out: Plant response rating, Wheat) was 0% and the plant injury at 125 g/ha (corn (Zea mays); 125 g ai/ha, postemergence, visual injury on 0 to 100 scale (0 no effect, 100 complete control), approx. 10 d, read-out: Corn plant response rating) was 20%. The Corn plant response rating (crop injury, 0 = no effect, 100 = complete kill) at 31 g/ha (corn (Zea mays); Postemergence, 31 g ai/ha, visual injury after approx. 10 d, 0 to 100 scale, 0 no effect, 100 complete control) was 0%, the pest or weed control at 125 g/ha ([2]; 125 g ai/ha, postemergence, visual injury on 0 to 100 scale (0 no effect, 100 complete control), approx. 10 d, read-out: Blackgrass plant response rating) was 50% and the pest or weed control at 31 g/ha ([2]; Postemergence, 31 g ai/ha, visual injury after approx. 10 d, 0 to 100 scale, 0 no effect, 100 complete control, read-out: Plant response rating, Blackgrass) was 0%. It also gave a pest or weed control at 125 g/ha ([3]; 125 g ai/ha, postemergence, visual injury on 0 to 100 scale (0 no effect, 100 complete control), approx. 10 d, read-out: Barnyardgrass plant response rating) of 40%, a pest or weed control at 31 g/ha ([3]; Postemergence, 31 g ai/ha, visual injury after approx. 10 d, 0 to 100 scale, 0 no effect, 100 complete control, read-out: Plant response rating, Barnyardgrass) of 0% and a pest or weed control at 125 g/ha ([4]; 125 g ai/ha, postemergence, visual injury on 0 to 100 scale (0 no effect, 100 complete control), approx. 10 d, read-out: Pigweed plant response rating) of 40%. It also gave a pest or weed control at 31 g/ha ([4]; Postemergence, 31 g ai/ha, visual injury after approx. 10 d, 0 to 100 scale, 0 no effect, 100 complete control, read-out: Plant response rating, Pigweed) of 0%, a pest or weed control at 125 g/ha (Kochia (Kochia scoparia) [5]; 125 g ai/ha, postemergence, visual injury on 0 to 100 scale (0 no effect, 100 complete control), approx. 10 d, read-out: Kochia plant response rating) of 40% and a pest or weed control at 31 g/ha (Kochia (Kochia scoparia) [5]; Postemergence, 31 g ai/ha, visual injury after approx. 10 d, 0 to 100 scale, 0 no effect, 100 complete control, read-out: Plant response rating, Kochia) of 0%. It also gave a pest or weed control at 125 g/ha ([6]; 125 g ai/ha, postemergence, visual injury on 0 to 100 scale (0 no effect, 100 complete control), approx. 10 d, read-out: Galium plant response rating) of 70%, a pest or weed control at 31 g/ha ([6]; Postemergence, 31 g ai/ha, visual injury after approx. 10 d, 0 to 100 scale, 0 no effect, 100 complete control, read-out: Plant response rating, Galium) of 40% and a pest or weed control at 125 g/ha ([7]; 125 g ai/ha, postemergence, visual injury on 0 to 100 scale (0 no effect, 100 complete control), approx. 10 d, read-out: Ryegrass, Italian plant response rating) of 40%. The pest or weed control at 31 g/ha ([7]; Postemergence, 31 g ai/ha, visual injury after approx. 10 d, 0 to 100 scale, 0 no effect, 100 complete control, read-out: Plant response rating, Ryegrass, Italian) was 0%, the pest or weed control at 125 g/ha ([8]; 125 g ai/ha, postemergence, visual injury on 0 to 100 scale (0 no effect, 100 complete control), approx. 10 d, read-out: Foxtail, Giant plant response rating) was 70% and the pest or weed control at 31 g/ha ([8]; Postemergence, 31 g ai/ha, visual injury after approx. 10 d, 0 to 100 scale, 0 no effect, 100 complete control, read-out: Plant response rating, Foxtail, Giant) was 0%. For the same compound, the pest or weed control at 125 g/ha ([9]; 125 g ai/ha, postemergence, visual injury on 0 to 100 scale (0 no effect, 100 complete control), approx. 10 d, read-out: Ragweed plant response rating) was 0%, the pest or weed control at 31 g/ha ([9]; Postemergence, 31 g ai/ha, visual injury after approx. 10 d, 0 to 100 scale, 0 no effect, 100 complete control, read-out: Plant response rating, Ragweed) was 0% and the pest or weed control at 31 g/ha ([10]; 31 g ai/ha, 0 to 100 scale where 0 is no effect and 100 is complete control, read-out: Barnyardgrass plant response rating) was 0%. It also gave a pest or weed control at 125 g/ha ([10]; 125 g ai/ha, visual injury rating after approximately 10 d, read-out: Barnyardgrass plant response rating (0 to 100 scale, 0 is no effect, 100 is complete control)) of 70%, a pest or weed control at 31 g/ha ([11]; 31 g ai/ha, Preemergence) of 30% and a pest or weed control at 125 g/ha [11, 19] of 70%. It also gave a pest or weed control at 31 g/ha (Kochia (Kochia scoparia) [12]; 31 g ai/ha, Preemergence) of 0%, a pest or weed control at 125 g/ha (Kochia (Kochia scoparia) [12]; [19]) of 70% and a pest or weed control at 31 g/ha ([13]; 31 g ai/ha, Preemergence) of 0%. For the same compound, the pest or weed control at 125 g/ha [13, 19] was 30%, the pest or weed control at 31 g/ha ([14]; 31 g ai/ha, 0 to 100 scale where 0 is no effect and 100 is complete control, read-out: Foxtail, Giant plant response rating) was 90% and the pest or weed control at 125 g/ha ([14]; 125 g ai/ha, visual injury rating after approximately 10 d, read-out: Foxtail, Giant plant response rating (0 to 100 scale, 0 is no effect, 100 is complete control)) was 100%. It also gave a pest or weed control at 31 g/ha ([15]; 31 g ai/ha, Preemergence) of 0%, a pest or weed control at 125 g/ha [15, 19] of 0% and a pest or weed control at 250 g/ha (rice (Oryra sativa)) of 0%. For the same compound, the pest or weed control at 250 g/ha [16] was 100%, the pest or weed control at 250 g/ha [17] was 0% and the pest or weed control at 250 g/ha [18] was 0%.

— patent US12077503B2, “Substituted cyclic amides and their use as herbicides” (FMC CORPORATION, priority 2015, dated 2024)
